Assay results as given in patent publication US10774080B2, “Pyrimidine compound as JAK kinase inhibitor” (THERAVANCE BIOPHARMA R&D IP, LLC, priority 2017, dated 2020).

Columns and labels:
[1] = Hanford, minipig, in vivo
Experimental: Assay 6: Dermal Pharmacokinetics in Hanford Mini-Pig Skin
The objective of this Study was to determine the epidermal, dermal and plasma pharmacokinetics of compound (I) following a 24 hour exposure to intact Hanford mini-pig skin.
Twenty-four hours prior to dosing, the hair was shaved from the back of 10-15 kg Hanford mini-pigs exposing an area of at least 700 cm^2 (about 10% of body surface). At time zero, compound (I) was applied to the back of the mini-pigs at a dose of 25 μL/cm^2. The skin was covered with an adhesive cover to prevent loss of compound to the cage or bedding. Following 24 h exposure, the backs were gently washed with soap and water to remove non-absorbed drug and patted dry. Immediately following this washing, blood was drawn by venipuncture from the mini-pigs. The outer skin (stratum corneum) was then removed by adhesive tape stripping. Upon exposure of the epidermis a 0.5 cm punch biopsy was taken. The epidermis and dermis were quickly separated, weighed and snap frozen. Similar samples were taken at 94 h, and 168 h (7 days) post-dosing in mini-pigs. Epidermis and dermis samples were homogenized in 1:10 (w/v) water using a Covaris ultrasonic homogenizer. Samples were extracted in 3 volumes of acetonitrile and quantified against a standard curve via LC-MS analysis.

CXCL10 gene expression = assay: Assay 7: ex vivo JAK PD assay, freshly excised human skin, CXCL10; details: 0.5% ointment, about 40 hours continuous exposure, Th1-skewed stimulation (TNFα, IFNγ, IL-12), vs vehicle
Experimental: Assay 7: Ex Vivo JAK Pharmacodynamic (PD) Assay Using Human Freshly Excised Skin An ex vivo JAK pharmacodynamics (PD) assay was conducted using human isolated skin tissue. The PD assay used fresh human skin (dermatome of 750 μm thickness) that was mounted in static Franz cells with a surface area of ˜0.5 cm^2. The receiver chambers of the Franz cells were filled with warm (37° C.) cornification media and placed in an incubator at 37° C. The skin was topically dosed with 10 μL ([…]) of compound (I) or vehicle and was left undisturbed overnight (˜24 hours). The next day, with no re-application of the test compound or vehicle, the media was replaced with a Th1-skewed stimulation cocktail consisting of TNFα, IFNγ and IL-12. The skin was left undisturbed for an additional 16 hours, and then harvested and processed for RNA extraction and qPCR of biomarkers: CXCL10, CCL2. GAPDH was used as an internal standard. The compound (I) was formulated in an ointment formulation at 0.5% strength. A total of three skin donors (tested in quadruplicates/sample/treatment) were used. Treatment effect was calculated as the percent increase or decrease in stimulation compared to the vehicle group. [table]

[2] = tested on: TSLP-induced TARC release from PBMCs; assay: Assay 4: TSLP-induced TARC assay in human PBMC; assay type: cell-based; details: 10 ng/mL TSLP, 48 hours, read-out: pIC50 for inhibition of TSLP induced TARC (converted)
Description: Assay 4: In Vitro TSLP-Induced TARC Assay in Human PBMC
The binding of TSLP to its receptor induces a conformational change that activates JAK1 and JAK2 to phosphorylate various transcription factors including STAT3 and STAT5. In skin-resident immune cells, this triggers a cascade of intracellular events that result in cell proliferation, anti-apoptosis, dendritic cell migration, and production of Th2 cytokines and chemokines. During the acute phase of atopic dermatitis, the skin is invaded by Th2 lymphocytes. In primary peripheral blood mononuclear cells (PBMCs), TSLP has a pro-inflammatory effect by activating myeloid dendritic cells to attract and stimulate T cells. This process is mediated by thymus and activation-regulated chemokine (TARC/CCL17). […]
In this assay, it was shown that TSLP stimulation induces TARC release from PBMCs, and that this response is attenuated in a dose-dependent manner upon treatment with compound (I). […] After 48 hours, the cell supernatants were collected, and TARC was measured using Human CCL17/TARC Quantikine ELISA Kit.
For dose-response analysis, percent inhibition data were plotted vs. compound concentrations, and IC50 values were determined from a 4-parameter robust fit model with the GraphPad Prism software. Results may also be expressed as the negative logarithm of the IC50 value, pIC50.

in vitro = in vitro ADME; details: human, microsomes
Experimental: Assay 17: Human Liver Microsome Assay The objective of this assay was to assess the metabolic stability of test compounds in an in vitro human liver sub-fraction. Human liver microsomes obtained from Bioreclamation-IVT (Baltimore, Md.) were thawed on ice and diluted into 0.1M potassium phosphate buffer pH 7.4 to yield final incubation protein concentrations of 0.1 mg/mL. […] Incubations were conducted at 37° C. temperature and test aliquots were taken at time points 0, 5, 8, 15, 30 and 45 minutes. […] The resulting samples were injected onto an LC-MS/MS system for analysis. For each incubation, the peak area of the analytes in each t0 aliquot was set to 100% and the peak areas from subsequent time point aliquots were converted to percentage of parent compound remaining relative to t0. The percentage of parent compound remaining was converted to natural log scale and plotted versus time in minutes. A linear regression analysis was performed for the initial decline of the parent disappearance profile and a formula for the best-fit line determined. The slope of the resultant line was normalized to protein concentration in mg/mL protein or number of cells/mL and CLint was calculated as follows for liver microsomes: CLint (μL·min^−1·mg^−1)=(Slope×1000)/[protein,mg/mL]

## CCS(=O)(=O)N1[C@@H]2CCC[C@H]1C[C@H](N(C)c1nc(CO)c(F)c(Nc3cc(C)[nH]n3)n1)C2 [Compound (I), (2-(((1R,3s,5S)-9-(ethylsulfonyl)-9-azabicyclo[3.3.1]nonan-3-yl)(methyl)amino)-5-fluoro-6-((5-methyl-1H-pyrazol-3-yl)amino)pyrimidin-4-yl)methanol]
[1]
  plasma exposure (below the limit of quantitation): < 0.001 µg/mL
CXCL10 gene expression
  PD-% Inhibition (mean ± SD) CXCL10: 90.1%
[2]
  IC50: 15.8 nM
In vitro; pH 7.4, HLM Clint
  microsomal CLint at 0.1 μM: 136 µL/min/mg
In vitro; pH 7.4, clearance class in human microsomes
  microsomal CLint at 0.1 μM: > 50 µL/min/mg
